Consider 61 compounds from PubChem BioAssay AID1264 (University of Pittsburgh Molecular Library Screening Center, 2008).

Molecules are shown by their SMILES. Values joined by “and” are separate entries in the source; they are usually repeats but may differ in a detail not shown here. Identical values can stand only once. Active and inactive are the calls of the source.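 How the source made its calls: active means every replicate of triplicate confirmation testing shows 50% or greater inhibition; inconclusive means one or more replicate tests show below 50% inhibition; inactive means every triplicate test shows below 50% inhibition.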

One may read the inhibition as the change of the read-out against control, counted positive when it falls.

Chain of Serine/threonine-protein kinase PLK1 (Homo sapiens) (P53350 whole entry, looked up): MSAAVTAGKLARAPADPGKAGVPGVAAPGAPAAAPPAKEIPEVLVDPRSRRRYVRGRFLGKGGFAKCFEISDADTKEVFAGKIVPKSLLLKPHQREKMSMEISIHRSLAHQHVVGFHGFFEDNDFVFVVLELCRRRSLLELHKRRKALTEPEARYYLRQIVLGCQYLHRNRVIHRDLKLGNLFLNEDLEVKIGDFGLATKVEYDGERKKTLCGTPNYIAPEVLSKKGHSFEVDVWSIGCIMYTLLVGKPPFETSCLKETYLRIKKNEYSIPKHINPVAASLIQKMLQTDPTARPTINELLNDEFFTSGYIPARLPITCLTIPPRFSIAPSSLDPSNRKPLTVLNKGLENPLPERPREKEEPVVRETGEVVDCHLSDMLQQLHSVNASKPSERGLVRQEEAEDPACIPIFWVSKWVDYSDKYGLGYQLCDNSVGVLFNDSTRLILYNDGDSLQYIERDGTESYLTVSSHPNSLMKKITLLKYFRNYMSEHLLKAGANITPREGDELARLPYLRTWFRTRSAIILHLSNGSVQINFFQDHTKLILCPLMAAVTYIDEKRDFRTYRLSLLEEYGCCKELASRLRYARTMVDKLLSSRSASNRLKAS

This assay has as its target Serine/threonine-protein kinase PLK1 (Homo sapiens) (UniProt P53350). Description: PLK1 kinase activity inhibitors, confirmation, biochemical, analogue series, repeat of primary screen (AID 1264). As to conditions: recombinant PLK1 kinase, TR-FRET phosphopeptide binding; at 10 µM; stronger effect = higher value.
On to `CCOc1ccc(NC(=O)c2c(N)n(C)c(=O)[nH]c2=O)cc1`, for which the inhibition is -9.99% (inactive). As to `CCOC(=O)c1ccccc1NC(=O)c1c(O)[nH]c(=S)[nH]c1=O`, the inhibition is 19.1% (inactive). Next, `O=C(Nc1ccccc1)c1c(O)[nH]c(=O)[nH]c1=O`: 0.179% (inactive); `CCOC(=O)c1cccc(NC(=O)c2c(N)n(C)c(=O)[nH]c2=O)c1`: -1.45% (inactive); `Cc1ccc(C2=CC(c3ccc(C)cc3)n3ncnc3N2)cc1` (stereo unspecified): -1.39% (inactive).

Turning to `CC1=CC(c2ccccc2)n2ncnc2N1` (stereo unspecified), the inhibition is 26% (inactive).

Regarding `C1=C(c2ccccc2)Nc2ncnn2C1c1ccccc1` (stereo unspecified), the inhibition was -5.72% (inactive) and -12.8% (inactive). Then `CCOC(=O)c1cccc(NC(=O)c2c(NCc3ccccc3)[nH]c(=O)[nH]c2=O)c1`, with -25.1% (inactive); and `CCCC(=O)NC(C)c1nc(-c2ccc(C)cc2)no1` (stereo unspecified), with -6.32% (inactive). Then `Cn1c(N)c(C(=O)Nc2ccccc2)c(=O)[nH]c1=O`, with 8.78% (inactive).

As to `C/C(=N\NC(=O)c1ccncc1)c1c(O)[nH]c(=O)[nH]c1=O`, the inhibition was -1.95% (inactive). Then `O=C(NCCc1nc(-c2ccccc2Cl)no1)c1ccccc1`, with -12.8% (inactive); and `Cc1ccc(C2=CC(c3ccccc3)n3ncnc3N2)cc1` (stereo unspecified), with -16.9% (inactive).

For the compound `CC(C)(C)C(=O)NCCc1nc(-c2ccccc2)no1`, the inhibition is 0.116% (inactive). Turning to `CCCCOC(=O)c1ccc(NC(=O)c2c(O)[nH]c(=O)[nH]c2=O)cc1`, the inhibition is 13.1% (inactive). Then `O=C(NCCc1nc(-c2ccccc2Cl)no1)C1CCCCC1`, with -35.6% (inactive). Regarding `CCOC(=O)CCCCCNC(=O)c1ccc(F)cc1F`, the inhibition is -1.76% (inactive). Then `CC(C)C(=O)NCCc1nc(-c2ccc(Cl)cc2)no1`, with -14.7% (inactive). Then `Cn1c(N)c(S(=O)(=O)NCc2ccccc2)c(=O)n(C)c1=O`, with -15.5% (inactive); and `CCOC(=O)c1ccccc1NC(=O)c1ccc(F)cc1F`, with -4.35% (inactive); and `CCOC(=O)c1ccccc1NC(=O)c1c(N)n(C)c(=O)[nH]c1=O`, with -3.12% (inactive). `CCOc1ccc(C2=CC(c3ccccc3)n3ncnc3N2)cc1` (stereo unspecified): the inhibition was -6.38% (inactive). Then `CCCCOC(=O)c1ccc(NC(=O)c2c(N)n(C)c(=O)[nH]c2=O)cc1`, with -5.01% (inactive); and `C1=C(c2ccccc2)Nc2ncnn2C1`, with 12.8% (inactive); and `CC(C)(C)c1ccc(C2=CC(c3ccccc3)n3ncnc3N2)cc1` (stereo unspecified), with -7.88% (inactive). With `CCC1=CC(c2ccccc2)n2ncnc2N1` (stereo unspecified), the inhibition was 27.4% (inactive). Next, `CCOC(=O)c1ccc(NC(=O)c2c(N)n(C)c(=O)n(C)c2=O)cc1`: -20.8% (inactive); `CCC(=O)NCCc1nc(-c2ccccc2)no1`: -12.8% (inactive).

Turning to `Cn1cccc1C1C=C(c2ccc(C(C)(C)C)cc2)Nc2ncnn21` (stereo unspecified), the inhibition is -5.07% (inactive).

`Cc1cccc(N/N=C/c2c(O)[nH]c(=S)[nH]c2=O)c1`: the inhibition was -7.37% (inactive). Next, `O=C(Nc1ccccc1)c1ccc(F)cc1F`: 24.9% (inactive); `COc1ccc(C2C=C(c3ccccc3)Nc3ncnn32)cc1` (stereo unspecified): -8.01% (inactive). Then `CC(C)C(=O)NCCc1nc(-c2ccccc2Cl)no1`, with -5.05% (inactive); and `COc1ccc(C2C=C(C)Nc3ncnn32)cc1` (stereo unspecified), with 5.53% (inactive); and `CCOC(=O)c1ccc(NC(=O)c2ccc(F)cc2F)cc1`, with 4.42% (inactive).

Turning to `Cc1ccc(C2C=C(c3ccccc3)Nc3ncnn32)cc1` (stereo unspecified), the inhibition is -8.59% (inactive). Then `CCCCOC(=O)c1ccc(NC(=O)c2ccc(F)cc2F)cc1`, with -1.8% (inactive). Then `CCOC(=O)c1cccc(NC(=O)c2ccc(F)cc2F)c1`, with -1.61% (inactive); and `CCOC(=O)c1ccc(NC(=O)c2c(O)[nH]c(=O)[nH]c2=O)cc1`, with -4.9% (inactive).

As for `CCOc1ccc(NC(=O)c2c(O)[nH]c(=O)[nH]c2=O)cc1`, the inhibition is 4.03% (inactive). Then `CC1=CC(c2ccccc2)n2nc(N)nc2N1` (stereo unspecified), with -13.7% (inactive); and `CCOC(=O)CCCCCNC(=O)c1c(O)[nH]c(=O)[nH]c1=O`, with -9.36% (inactive). Then `FC(F)(F)c1ccccc1C1=CC(c2ccccc2)n2ncnc2N1` (stereo unspecified), with -2.08% (inactive). For `CCOC(=O)c1ccc(NC(=O)c2c(N)n(C)c(=O)[nH]c2=O)cc1`, the inhibition is -19.2% (inactive).

Take `CC(C)(C)c1ccc(C2=CC(c3ccccc3F)n3ncnc3N2)cc1` (stereo unspecified): the inhibition is -3.46% (inactive). Next, `CCOC(=O)c1ccc(NC(=O)c2c(NCc3ccccc3)[nH]c(=O)[nH]c2=O)cc1`: -44% (inactive); `O=C(Nc1ccccc1)c1c(O)[nH]c(=S)[nH]c1=O`: 14.3% (inactive).

Consider `Cc1ccc(C2=CC(c3ccccc3)n3ncnc3N2)c(C)c1` (stereo unspecified), for which the inhibition was -6.91% (inactive).

Take `CC(=O)NCCc1nc(-c2ccc(Cl)cc2)no1`: the inhibition is 0.952% (inactive). Then `O=C(NCCc1nc(-c2ccccc2)no1)c1ccco1`, with -16.1% (inactive); and `CCOC(=O)c1cccc(NC(=O)c2c(O)[nH]c(=O)[nH]c2=O)c1`, with -17.6% (inactive). Then `CCOc1ccc(NC(=O)c2ccc(F)cc2F)cc1`, with -2.77% (inactive); and `Cc1cc(=O)n2[nH]cnc2n1`, with 19.1% (inactive). Next, `CC(C)C(=O)NCCc1nc(-c2ccccc2)no1`: -10.1% (inactive).

Regarding `CCC(=O)NCCCc1nc(-c2ccccc2)no1`, the inhibition is -3.38% (inactive).

As to `CCOC(=O)c1ccc(NS(=O)(=O)c2c(N)n(C)c(=O)n(C)c2=O)cc1`, the inhibition is -7.36% (inactive). Next, `CCOC(=O)c1ccccc1NC(=O)c1c(O)[nH]c(=O)[nH]c1=O`: -7.12% (inactive); `CCOC(=O)c1ccc(NC(=O)c2c(N)n(Cc3ccccc3)c(=O)[nH]c2=O)cc1`: -23.9% (inactive). Next, `Cc1cc(C)c(C2=CC(c3ccccc3)n3ncnc3N2)cc1C` (stereo unspecified): -3.17% (inactive); `O=C(NCCc1nc(-c2ccccc2)no1)c1ccccc1`: -5.02% (inactive); `Cc1ccc(NC(=O)c2ccc(F)cc2F)cc1`: 0.531% (inactive).
